Assay [1] has as its system A549. The experiment in a line: Cytotoxicity against human A549 cells at 10 ug/ml. The assay is classed as functional, cell-based.
For assay [2], the system named is RPMI-7951. The experiment in a line: Cytotoxicity against human RPMI7951 cells. The assay is classed as functional. The conditions noted are these: read-out: ED50 (the source's name).
Assay [3] deals with HCT-8. The experiment in a line: Cytotoxicity against human HCT8 cells. The assay is classed as functional. As to conditions: read-out: ED50 (the source's name).
The subject of assay [4] is TE-671. The experiment in a line: Cytotoxicity against human TE671 cells. The assay is classed as functional. As to conditions: read-out: ED50 (the source's name).
The test system of assay [5] is P388. The assay is described as follows: Cytotoxicity against mouse P388 cells. The assay is classed as functional. The conditions noted are these: read-out: ED50 (the source's name).
Assay [6] relates to KB. The assay is described as follows: Cytotoxicity against human KB cells. The assay is classed as functional. The conditions noted are these: read-out: ED50 (the source's name).
Assay [7] deals with TE-671. The experiment in a line: Cytotoxicity against human TE671 cells at 10 ug/ml. The assay is classed as functional, cell-based.
The test system of assay [8] is A549. The assay is described as follows: Cytotoxicity against human A549 cells. The assay is classed as functional. As to conditions: read-out: ED50 (the source's name).
Assay [9] relates to RPMI-7951. The experiment in a line: Cytotoxicity against human RPMI7951 cells at 10 ug/ml. The assay is classed as functional, cell-based.
Assay [10] deals with HCT-8. The experiment in a line: Cytotoxicity against human HCT8 cells at 10 ug/ml. The assay is classed as functional, cell-based.
Assay [11] relates to P388. The experiment in a line: Cytotoxicity against mouse P388 cells at 10 ug/ml. The assay is classed as functional, cell-based.
Assay [12] has as its system KB. The assay is described as follows: Cytotoxicity against human KB cells at 10 ug/ml. The assay is classed as functional, cell-based.

Converted amounts (≈) assume the structure as drawn. The source made the active and inactive calls. The calls are words filed in the database; no cut-off is given here.

Consider `COc1cc2c(cc1OC)[C@@H]1C(=O)c3ccc4c(c3O[C@@H]1CO2)C[C@H](C(C)(C)O[C@@H]1O[C@H](CO)[C@@H](O)[C@H](O)[C@H]1O)O4`, for which, in assay [1], the ED50 result is “inactive”. Also, the EC50 in assay [2] amounted to 4.44 µg/mL (≈ 7.73 µM); in assay [3], 7.43 µg/mL (≈ 12.9 µM); in assay [4], 2.95 µg/mL (≈ 5.13 µM); in assay [5] it was 6.68 µg/mL (≈ 11.6 µM); in assay [6], 6.32 µg/mL (≈ 11 µM).

For `COc1ccc2c(=O)c(-c3cc(OC)c(OC)cc3OC)coc2c1`, the ED50 result in [1] and in assay [7] was “inactive” in each case. Moreover, the EC50 in [2] stood at 0.49 µg/mL (≈ 1.43 µM); in [3], 4.63 µg/mL (≈ 13.5 µM); in assay [5] it was 0.53 µg/mL (≈ 1.55 µM); in assay [6], 0.55 µg/mL (≈ 1.61 µM).

Regarding `COc1cc2c(cc1OC)[C@]1(O)C(=O)c3ccc4c(c3O[C@@H]1CO2)C[C@H](C(C)(C)O)O4`, the EC50 was 9.28 µg/mL (≈ 21.7 µM) in assay [8]; 0.73 µg/mL (≈ 1.7 µM) in [2]; 0.56 µg/mL (≈ 1.31 µM) in [3]; 0.12 µg/mL (≈ 0.28 µM) in assay [4]; 0.59 µg/mL (≈ 1.38 µM) in assay [5]; 3.67 µg/mL (≈ 8.57 µM) in [6].

Take `COc1ccc(-c2coc3c(OC)c(O)ccc3c2=O)cc1`: the ED50 entry in assay [9], in [1], in [7], in [10], in assay [11] and in [12] was “inactive” each time.

On to `COc1ccc(-c2coc3cc(O)c(OC)cc3c2=O)cc1`, for which the ED50 entry in assay [9], in assay [1], in [7], in assay [10], in assay [11] and in assay [12] was “inactive” in each case.

Take `C=C(CO)[C@H]1Cc2c(ccc3c2O[C@@H]2COc4cc(OC)c(OC)cc4[C@@H]2C3=O)O1` [AMORPHIGENIN]: the EC50 in assay [8] is 0.05 µg/mL (≈ 0.122 µM); in [2] it was 0.05 µg/mL (≈ 0.122 µM); in assay [3], 0.03 µg/mL (≈ 0.0731 µM); in assay [4], below 0.01 µg/mL; in assay [5], 0.04 µg/mL (≈ 0.0975 µM); in assay [6], 0.04 µg/mL (≈ 0.0975 µM).

Take `COC1=CC(=O)[C@]2(C=C1OC)OC[C@H]1Oc3c(ccc4c3C=CC(C)(C)O4)C(=O)[C@H]12` [AMORPHISPIRONONE]: the ED50 result in [1], in assay [7], in [10] and in assay [11] was “inactive” throughout. In addition, the EC50 is 0.61 µg/mL (≈ 1.49 µM) in [2] and 0.58 µg/mL (≈ 1.41 µM) in assay [6].

Consider `C=C(CO)[C@H]1Cc2c(ccc3c2O[C@@H]2COc4cc(OC)c(OC)cc4[C@]2(O)C3=O)O1` [DABINOL], for which the EC50 in assay [8], in assay [2], in [3], in assay [4], in [5] and in assay [6] was below 0.001 µg/mL throughout.

As for `COc1cc2c(cc1OC)[C@@H]1C(=O)c3ccc4c(c3O[C@@H]1CO2)C[C@H](C(C)(C)O)O4` [DALPANOL], the EC50 in assay [8] is 0.86 µg/mL (≈ 2.09 µM); in assay [2], 4.83 µg/mL (≈ 11.7 µM); in assay [3], 0.48 µg/mL (≈ 1.16 µM); in assay [4], 0.49 µg/mL (≈ 1.19 µM); in [6], 0.89 µg/mL (≈ 2.16 µM). Further, the ED50 entry in assay [11] was “inactive”.

As for `COc1cc2c(cc1OC)[C@]1(O)C(=O)c3ccc4c(c3O[C@@H]1CO2)C=CC(C)(C)O4` [TEPHROSIN], the EC50 is below 0.001 µg/mL in assay [8]; 0.07 µg/mL (≈ 0.171 µM) in assay [2]; 0.09 µg/mL (≈ 0.219 µM) in assay [3]; 0.05 µg/mL (≈ 0.122 µM) in assay [4]; 0.06 µg/mL (≈ 0.146 µM) in assay [5]; 0.36 µg/mL (≈ 0.877 µM) in assay [6].

Values taken from ChEMBL document CHEMBL1147359, “Antitumor agents, 138. Rotenoids and isoflavones as cytotoxic constitutents from Amorpha fruticosa” (1993).
